Assays:
APP23 mice [1] = assay: Immunoblotting of hippocampus for phosphorylation of CaMKII, CaMKIV and ERK; type: in vivo; settings: APP23 mice chronically treated, conditions as Test Example 4
Procedure: The hippocampus of APP23 mouse was excised out. To hippocampal slices, an SDS sample buffer was added to prepare a suspension, which was subjected to immunoblotting using antibodies against CaMKII, CaMKIV and ERK (CaMKII: Fukunaga et al., J. Biol. Chem. 1992, 267, 22527-22533, CaMKIV: Kasahara et al., J. Biol. Chem. 2001, 276, 24044-24050, ERK: manufactured by Sigma-Aldrich). In this manner, phosphorylation of the individual proteins was analyzed. CaMKII, CaMKIV and ERK are molecules all considered to play an important role in memory formation. As a result, it was observed that phosphorylation of CaMKII decreases in ordinary APP23 mice; whereas, in APP23 mice chronically treated with TP-014 (the treatment conditions are the same as in the case of Test Example 4), phosphorylation of CaMKII is accelerated.
GluA1 (Ser-831), Synapsin I (Ser-603) and CREB (Ser-133), which are molecules known to be activated if CaMKII is activated. These molecules were analyzed by immunoblotting of hippocampal slice sections suspended in an SDS sample buffer. Antibodies against the individual molecules were obtained from Millipore. It is shown that activation of GluA1 (Ser-831) and CREB (Ser-133) is induced by activation of CaMKII. FIG. 5a and FIG. 5c show bands (image) actually obtained by electrophoresis of immunoblots.

Kir6.1 channel = target: T1, Kir6.1 channel (Mus musculus, UniProt P97794); assay: Patch-clamp measurement of outward potassium current in Kir6.1 channel-overexpressing cells; type: cell-based; settings: 10 nM TP-014, Test Example 15 (Kir6.1 channel)
T1 construct: expressed in transfected cells; host or cells: Neuro2A (N2A) cells, transient transfection with pcDNA3.1-Kir6.1 (gift of Prof. Toru Ishizuka, Tohoku University)
T1 sequence (P97794 1-424): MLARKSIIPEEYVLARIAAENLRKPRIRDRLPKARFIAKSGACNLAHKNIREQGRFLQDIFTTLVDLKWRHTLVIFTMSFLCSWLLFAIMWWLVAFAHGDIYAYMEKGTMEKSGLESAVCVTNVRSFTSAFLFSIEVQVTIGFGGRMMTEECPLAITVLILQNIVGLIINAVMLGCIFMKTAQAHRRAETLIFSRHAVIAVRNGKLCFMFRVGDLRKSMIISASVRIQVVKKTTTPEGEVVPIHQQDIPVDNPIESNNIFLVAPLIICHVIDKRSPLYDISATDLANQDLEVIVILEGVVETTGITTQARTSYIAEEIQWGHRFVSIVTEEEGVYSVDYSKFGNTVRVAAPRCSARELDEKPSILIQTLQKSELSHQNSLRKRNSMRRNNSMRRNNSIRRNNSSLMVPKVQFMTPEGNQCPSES
Procedure: A plasmid vector having cDNA of Kir6.1 channel inserted therein: pcDNA3.1-Kir6.1, was obtained from professor Toru Ishizuka of Graduate School of Life Sciences, Tohoku University. N2A cells overexpressing Kir6.1 channel were obtained in the same manner as in “preparation of N2A cells overexpressing Kir6.2 channel” of Test Example 1 except that the above plasmid was used.
Using Kir6.1 channel-overexpressing cells obtained, potassium current flowing outside from cells was measured by the ordinary patch-clamp method. ATP-sensitive potassium channel (Kir6.1 channel) was localized in the cell membrane of the nerve cells. If the channel is inhibited and clogged, the threshold of the nerve cell membrane rises to produce the analogous state as where an action potential is temporarily generated, with the result that potassium current flows out from cells outside and, in place, calcium current flows into the cells from outside. […] This was confirmed by applying immunoblotting (the same conditions as in Test Example 1 were employed except that anti-Kir6.1 channel antibody, n=5) with an anti-Kir6.1 channel antibody (prepared based on an ordinary method) to Kir6.1 channel-overexpressing cells (prepared by the aforementioned method).

Kir6.2 defective mice = assay: Immunoblotting of hippocampus for CaMKII activation in Kir6.2 defective mice; type: in vivo; settings: chronic treatment
Procedure: Activation of CaMKII was investigated in the same manner as in FIGS. 4 to 7. In addition, GluA1 (Ser-831), which is known as a molecule activated by activation of CaMKII, was investigated. Hippocampal slices were suspended in an SDS sample buffer to prepare a suspension, which was subjected to immunoblotting. In this way, the intracellular mechanism of cognitive dysfunction in Kir6.2 defective mice was analyzed. The results are shown in FIG. 9 (FIG. 9a: band images by immunoblotting, FIG. 9b: quantification results of signal intensities of bands). In the hippocampus of Kir6.2 defective mice, activation of CaMKII was accelerated. Even in the case of chronic treatment with TP-014, no influence was observed.

OBX mice = assay: Depression-like symptom: tail-suspension method and forced swim method in OBX mice; type: in vivo; settings: chronic administration 2 weeks
Procedure: OBX mice were originally established as depression model mice although a deterioration of cognitive function was observed. Depression was analyzed by a tail-suspension method (a) and a forced swim method (b). The tail-suspension method is a method of pinching the tail of a mouse and hanging the mouse upside down. If the mouse hung has depression, immobility time is long. Since a normal mouse moves even if it is hung, the immobility time is short. In the forced swim method, a mouse is forced to swim in water in a beaker. A mouse having depression neither swims nor moves (just floating). Thus the immobility time is measured. Immobility time was long in OBX mice both in the tail-suspension method (a) and the forced swim method (b). The immobility time of a TP-014 chronic administration group (2 weeks, in the same administration method as that previously mentioned) was improved.

APP23 mice [2] = assay: Aβ aggregation in brain slices, staining with 6E10 and thioflavin; type: in vivo; settings: APP23 mice (14 months old), chronic treatment, brain slice sections
Text: The hypothesis that amyloid-β (Aβ) is a cause of Alzheimer's disease has now still important. AP aggregation, which occurs in APP23 mice (14 months old) was confirmed by immunostaining. The brains of a WT (control mouse) and APP23 mouse were cut into slice sections of 50 micrometers in thickness. The slice sections were stained with 6E10 (Aβ antibody, manufactured by Abeam) and thioflavin. The conditions other than the above were the same as in the ordinary immunostaining method. […] In contrast, aggregation was not virtually observed in the hippocampus (CA1). Aβ aggregation was inhibited by TP-014 chronic treatment.

- outward potassium current (Kir6.1 channel): suppressed
SMILES: O=C(N[C@@H](c1ccccc1)[C@H]1[C@H]2C[C@@H]3C[C@](Cl)(C2)C[C@@]1(OC(=O)C(F)(F)F)C3)C(F)(F)F [TP-014, (1S,2R,3S,5S,7S)-5-chloro-2-((R)-phenyl(2,2,2-trifluoroacetamido)methyl)adamantan-1-yl 2,2,2-trifluoroacetate]
- phosphorylation of CaMKII in hippocampus (APP23 mice [1]): accelerated
- activation of CaMKII in hippocampus of Kir6.2 defective mice (Kir6.2 defective mice): no influence
- immobility time (tail-suspension method and forced swim method) (OBX mice): improved
- Aβ aggregation (APP23 mice [2]): inhibited
